Where two headings read alike, the source gives them in different places.
Conditions: 2 Hrs

Substance: 99m technetium-tin-1-amino-ethane-1,1-diphosphonate complex [^99m Tc-Sn-AEDP]
- Ratio of 99mTc complex/85Sr: Ave Bone (0.01 mg/kg): 0.735
- Ratio of 99mTc complex/85Sr: Blood (0.01 mg/kg): 0.406
- Ratio of 99mTc complex/85Sr: Femur (0.01 mg/kg): 0.720
- Ratio of 99mTc complex/85Sr: Kidneys (0.01 mg/kg): 4.99
- Ratio of 99mTc complex/85Sr: Liver (0.01 mg/kg): 3.00
- Ratio of 99mTc complex/85Sr: Marrow (0.01 mg/kg): 1.27
- Ratio of 99mTc complex/85Sr: Muscle (0.01 mg/kg): 0.338
- Ratio of 99mTc complex/85Sr: Pelvis (0.01 mg/kg): 0.794
- Ratio of 99mTc complex/85Sr: Spine (0.01 mg/kg): 0.689
- Ratio of 99mTc complex/85Sr: Tibia (0.01 mg/kg): 0.710
- Tc/Sr (last line of distribution table) (0.01 mg/kg): 0.736
- % Dose in Whole Organ: Blood (0.01 mg/kg AEDP): 1.18 % Dose
- % Dose in Whole Organ: Kidneys (0.01 mg/kg AEDP): 1.59 % Dose
- % Dose in Whole Organ: Liver (0.01 mg/kg AEDP): 1.69 % Dose
- % Dose in Whole Organ: Marrow (0.01 mg/kg AEDP): 0.657 % Dose
- % Dose in Whole Organ: Muscle (0.01 mg/kg AEDP): 0.988 % Dose
- % Dose in Whole Organ: W. Femur (0.01 mg/kg AEDP): 2.34 % Dose
- % Dose in Whole Organ: W. Tibia (0.01 mg/kg AEDP): 1.96 % Dose
- % Dose/1% Body weight: Blood (0.01 mg/kg AEDP): 0.168 % Dose/1% Body weight
- % Dose/1% Body weight: Bone Ave (0.01 mg/kg AEDP): 7.60 % Dose/1% Body weight
- % Dose/1% Body weight: Femur (0.01 mg/kg AEDP): 7.54 % Dose/1% Body weight
- % Dose/1% Body weight: Kidneys (0.01 mg/kg AEDP): 2.72 % Dose/1% Body weight
- % Dose/1% Body weight: Liver (0.01 mg/kg AEDP): 0.617 % Dose/1% Body weight
- % Dose/1% Body weight: Marrow (0.01 mg/kg AEDP): 0.300 % Dose/1% Body weight
- % Dose/1% Body weight: Muscle (0.01 mg/kg AEDP): 0.037 % Dose/1% Body weight
- % Dose/1% Body weight: Pelvis (0.01 mg/kg AEDP): 8.53 % Dose/1% Body weight
- % Dose/1% Body weight: Spine (0.01 mg/kg AEDP): 6.20 % Dose/1% Body weight
- % Dose/1% Body weight: Tibia (0.01 mg/kg AEDP): 8.13 % Dose/1% Body weight
- % Dose: Urine (0.01 mg/kg AEDP): 48.39 % Dose
- Ratio of 99mTc complex/85Sr: Ave Bone (0.05 mg/kg): 0.683
- Ratio of 99mTc complex/85Sr: Blood (0.05 mg/kg): 0.409
- Ratio of 99mTc complex/85Sr: Femur (0.05 mg/kg): 0.687
- Ratio of 99mTc complex/85Sr: Kidneys (0.05 mg/kg): 3.30
- Ratio of 99mTc complex/85Sr: Liver (0.05 mg/kg): 1.32
- Ratio of 99mTc complex/85Sr: Marrow (0.05 mg/kg): 1.18
- Ratio of 99mTc complex/85Sr: Muscle (0.05 mg/kg): 0.236
- Ratio of 99mTc complex/85Sr: Pelvis (0.05 mg/kg): 0.684
- Ratio of 99mTc complex/85Sr: Spine (0.05 mg/kg): 0.675
- Ratio of 99mTc complex/85Sr: Tibia (0.05 mg/kg): 0.681
- Tc/Sr (last line of distribution table) (0.05 mg/kg): 0.680
- % Dose in Whole Organ: Blood (0.05 mg/kg AEDP): 1.01 % Dose
- % Dose in Whole Organ: Kidneys (0.05 mg/kg AEDP): 1.13 % Dose
- % Dose in Whole Organ: Liver (0.05 mg/kg AEDP): 0.806 % Dose
- % Dose in Whole Organ: Marrow (0.05 mg/kg AEDP): 0.549 % Dose
- % Dose in Whole Organ: Muscle (0.05 mg/kg AEDP): 1.20 % Dose
- % Dose in Whole Organ: W. Femur (0.05 mg/kg AEDP): 2.41 % Dose
- % Dose in Whole Organ: W. Tibia (0.05 mg/kg AEDP): 2.14 % Dose
- % Dose/1% Body weight: Blood (0.05 mg/kg AEDP): 0.144 % Dose/1% Body weight
- % Dose/1% Body weight: Bone Ave (0.05 mg/kg AEDP): 8.39 % Dose/1% Body weight
- % Dose/1% Body weight: Femur (0.05 mg/kg AEDP): 8.63 % Dose/1% Body weight
- % Dose/1% Body weight: Kidneys (0.05 mg/kg AEDP): 1.83 % Dose/1% Body weight
- % Dose/1% Body weight: Liver (0.05 mg/kg AEDP): 0.176 % Dose/1% Body weight
- % Dose/1% Body weight: Marrow (0.05 mg/kg AEDP): 0.250 % Dose/1% Body weight
- % Dose/1% Body weight: Muscle (0.05 mg/kg AEDP): 0.028 % Dose/1% Body weight
- % Dose/1% Body weight: Pelvis (0.05 mg/kg AEDP): 7.82 % Dose/1% Body weight
- % Dose/1% Body weight: Spine (0.05 mg/kg AEDP): 7.80 % Dose/1% Body weight
- % Dose/1% Body weight: Tibia (0.05 mg/kg AEDP): 9.30 % Dose/1% Body weight
- % Dose: Urine (0.05 mg/kg AEDP): 44.21 % Dose
- Ratio of 99mTc complex/85Sr: Ave Bone (0.1 mg/kg): 0.716
- Ratio of 99mTc complex/85Sr: Blood (0.1 mg/kg): 0.409
- Ratio of 99mTc complex/85Sr: Femur (0.1 mg/kg): 0.714
- Ratio of 99mTc complex/85Sr: Kidneys (0.1 mg/kg): 2.94
- Ratio of 99mTc complex/85Sr: Liver (0.1 mg/kg): 0.490
- Ratio of 99mTc complex/85Sr: Marrow (0.1 mg/kg): 0.621
- Ratio of 99mTc complex/85Sr: Muscle (0.1 mg/kg): 0.205
- Ratio of 99mTc complex/85Sr: Pelvis (0.1 mg/kg): 0.725
- Ratio of 99mTc complex/85Sr: Spine (0.1 mg/kg): 0.705
- Ratio of 99mTc complex/85Sr: Tibia (0.1 mg/kg): 0.721
- Tc/Sr (last line of distribution table) (0.1 mg/kg): 0.717
- % Dose in Whole Organ: Blood (0.1 mg/kg AEDP): 0.96 % Dose
- % Dose in Whole Organ: Kidneys (0.1 mg/kg AEDP): 0.913 % Dose
- % Dose in Whole Organ: Liver (0.1 mg/kg AEDP): 0.309 % Dose
- % Dose in Whole Organ: Marrow (0.1 mg/kg AEDP): 0.211 % Dose
- % Dose in Whole Organ: Muscle (0.1 mg/kg AEDP): 1.46 % Dose
- % Dose in Whole Organ: W. Femur (0.1 mg/kg AEDP): 2.38 % Dose
- % Dose in Whole Organ: W. Tibia (0.1 mg/kg AEDP): 2.18 % Dose
- % Dose/1% Body weight: Blood (0.1 mg/kg AEDP): 0.137 % Dose/1% Body weight
- % Dose/1% Body weight: Bone Ave (0.1 mg/kg AEDP): 7.51 % Dose/1% Body weight
- % Dose/1% Body weight: Femur (0.1 mg/kg AEDP): 7.93 % Dose/1% Body weight
- % Dose/1% Body weight: Kidneys (0.1 mg/kg AEDP): 1.28 % Dose/1% Body weight
- % Dose/1% Body weight: Liver (0.1 mg/kg AEDP): 0.083 % Dose/1% Body weight
- % Dose/1% Body weight: Marrow (0.1 mg/kg AEDP): 0.096 % Dose/1% Body weight
- % Dose/1% Body weight: Muscle (0.1 mg/kg AEDP): 0.034 % Dose/1% Body weight
- % Dose/1% Body weight: Pelvis (0.1 mg/kg AEDP): 6.24 % Dose/1% Body weight
- % Dose/1% Body weight: Spine (0.1 mg/kg AEDP): 7.36 % Dose/1% Body weight
- % Dose/1% Body weight: Tibia (0.1 mg/kg AEDP): 8.50 % Dose/1% Body weight
- % Dose: Urine (0.1 mg/kg AEDP): 38.8 % Dose
- Ratio of 99mTc complex/85Sr: Ave Bone (0.5 mg/kg): 0.644
- Ratio of 99mTc complex/85Sr: Blood (0.5 mg/kg): 0.280
- Ratio of 99mTc complex/85Sr: Femur (0.5 mg/kg): 0.628
- Ratio of 99mTc complex/85Sr: Kidneys (0.5 mg/kg): 2.47
- Ratio of 99mTc complex/85Sr: Liver (0.5 mg/kg): 0.459
- Ratio of 99mTc complex/85Sr: Marrow (0.5 mg/kg): 0.500
- Ratio of 99mTc complex/85Sr: Muscle (0.5 mg/kg): 0.140
- Ratio of 99mTc complex/85Sr: Pelvis (0.5 mg/kg): 0.692
- Ratio of 99mTc complex/85Sr: Spine (0.5 mg/kg): 0.614
- Ratio of 99mTc complex/85Sr: Tibia (0.5 mg/kg): 0.632
- Tc/Sr (last line of distribution table) (0.5 mg/kg): 0.645
- % Dose in Whole Organ: Blood (0.5 mg/kg AEDP): 1.38 % Dose
- % Dose in Whole Organ: Kidneys (0.5 mg/kg AEDP): 1.11 % Dose
- % Dose in Whole Organ: Liver (0.5 mg/kg AEDP): 0.216 % Dose
- % Dose in Whole Organ: Marrow (0.5 mg/kg AEDP): 0.23 % Dose
- % Dose in Whole Organ: Muscle (0.5 mg/kg AEDP): 0.883 % Dose
- % Dose in Whole Organ: W. Femur (0.5 mg/kg AEDP): 1.74 % Dose
- % Dose in Whole Organ: W. Tibia (0.5 mg/kg AEDP): 1.55 % Dose
- % Dose/1% Body weight: Blood (0.5 mg/kg AEDP): 0.197 % Dose/1% Body weight
- % Dose/1% Body weight: Bone Ave (0.5 mg/kg AEDP): 6.96 % Dose/1% Body weight
- % Dose/1% Body weight: Femur (0.5 mg/kg AEDP): 6.59 % Dose/1% Body weight
- % Dose/1% Body weight: Kidneys (0.5 mg/kg AEDP): 2.11 % Dose/1% Body weight
- % Dose/1% Body weight: Liver (0.5 mg/kg AEDP): 0.079 % Dose/1% Body weight
- % Dose/1% Body weight: Marrow (0.5 mg/kg AEDP): 0.104 % Dose/1% Body weight
- % Dose/1% Body weight: Muscle (0.5 mg/kg AEDP): 0.021 % Dose/1% Body weight
- % Dose/1% Body weight: Pelvis (0.5 mg/kg AEDP): 7.93 % Dose/1% Body weight
- % Dose/1% Body weight: Spine (0.5 mg/kg AEDP): 6.05 % Dose/1% Body weight
- % Dose/1% Body weight: Tibia (0.5 mg/kg AEDP): 7.27 % Dose/1% Body weight
- % Dose: Urine (0.5 mg/kg AEDP): 48.85 % Dose

Source: patent US4032625A, “Bone-seeking technetium-99m complex” (priority 1975, dated 1977)
